From patent publication US7811577B2 (priority 2004, dated 2010)
Entries after “also recorded” stand apart in the source; their conditions may differ. Read-outs that look alike come from different tables or passages of the source. Numbered stars: 1 amine (or outer) side, 2 acyl side, 3 side chain; on linkers, the order of the positions; unused ones are H or OH. Bridge positions count the residues as written; N and C are the ends. Square brackets hold non-standard residues; d marks the D form. Ends that are not written are not given here. I, II: the chains in the order shown. * marks the point of attachment. Biotin = O=C1N[C@H]2[C@H](CS[C@H]2CCCCC(=O)*)N1; Ttds = O=C(CCC(=O)[*:2])NCCCOCCOCCOCCCN[*:1]; Acm = CC(=O)NC*

Experiments:
[1] = system: HIV-1 HXB2; conditions: for anti-viral activity against HIV-1 HXB2, in words: single-cycle/single cell infectivity assay
[2] = system: D5 IgG binding to biotinylated 5-Helix; experiment: Biotinylated 5-Helix/D5 IgG interaction (competition) assay, AlphaScreen
Source text: The instrument records these emissions.
(§1) This test determines whether the covalently-stabilized, homotrimeric or heterotrimeric CC-chimeric N-peptides can preserve the structure of the internal, N-helix coiled-coil of gp41.

[3] = system: HIV-1 BaL
[4] = system: HIV-1 89.6; assay type: cell-based
[5] = system: D5 IgG / biotinylated-IZN17; experiment: IC50 (nM)
Source text: Table printed on a drawing sheet, FIG. 6
Head of the field: IC50 (nM)
Wildtype IZN17 peptide was included as a positive control, previously shown to inhibit D5 binding in this assay.
First copying reader's note: The table stands beside a dose-response plot (Average Alpha Counts vs [Peptide]), which is not copied.

[6] = Thermal denaturation (CD) in 2M guanidinium chloride; conditions: for melting temperature / midpoint of thermal denaturation: in the presence of 2M guanidinium chloride
Protocol: The stability of SZN17 was compared with that of IZN17 using thermal denaturation analysis performed in the presence of 2M guanidine hydrochloride (GdnHCl).

[7] = Circular dichroism spectroscopy and thermal denaturation without denaturant; assay type: physicochemical; conditions: for melting point (thermal denaturation): no denaturant
Protocol: The IZ-like scaffold in CCI10N17 (SEQ ID NO:20) comprises only the ten COOH-terminal residues of the “IZ” scaffold, with addition of the covalent trimerizing unit (CCGG (SEQ ID NO:28)) at the NH2-terminus of the peptide. The non-covalently-stabilized CCI10N17 coiled-coil (i.e., the coiled-coil formed under non-oxidizing conditions) was dissolved at neutral pH, and its secondary structure content was determined by circular dichroism spectroscopy (CD).
In order to understand the role of the covalent trimerizing unit (CCGG; SEQ ID NO:28), the CCI10N17 peptide was dissolved to permit air oxidation under the same conditions as previously shown for CCIZN17, to generate covalently-stabilized coiled-coil molecules, (CCI10N17)3. […] The trimer (CCI10N17)3 was analyzed by CD and denaturation studies for analysis of both its secondary structure content and stability. The helical content of this molecule was only 85% with a melting curve showing a low cooperatively profile and a low melting point of about 60° C.

[8] = system: D5 IgG binding to biotinylated-IZN17; experiment: Biotinylated-IZN17/D5 IgG interaction assay, AlphaScreen
Source text: The instrument records these emissions.
as §1

[9] = system: D5-IgG binding to biotinylated IQN17; experiment: Competition of D5-IgG binding to biotinylated IQN17, AlphaScreen
[10] = non-covalently-stabilized coiled-coil, neutral pH, 15 μM

With “(CCS10N17)3: covalent disulfide trimer of CCS10N17 (CCGGIEKKIEAIEKLLQLTVWGIKQLQARIL; also: disulfide-linked homotrimer)” the “anti-viral activity against HIV-1 HXB2, in words” value [1] was “much lower potencies”.

With “(CCIZN11IZ)3: covalent disulfide trimer of CCIZN11IZ (CCGGIKKEIEAIKKEQEAIKKKIEAIEKLLQLTVWGIKQIKKEIEAI; also: disulfide-linked homotrimer)” the “D5 IgG binding in bio-5-Helix/D5 IgG interaction assay, in words” value [2] was “binds D5 IgG” and the IC50 ([1]; read-out: IC50 against HIV-1 HXB2, single-cycle infectivity assay, HXB2) was 0.3 nM.

enfuvirtide showed an IC50 ([1]; read-out: Anti-viral activity, IC50, HIV strain HXB2) of 5.3 nM, an IC50 ([3]; read-out: Anti-viral activity, IC50, HIV strain BaL) of 2.4 nM and an IC50 ([4]; HIV strain 89.6, read-out: Anti-viral activity, IC50) of 29 nM.

“IEKKIEEIEKKIEEIEKKIEEIEKLLQLTVWGIKQLQARIL [EZN17, EZ scaffold fused to N17]” gave an IC50 [5] of 18.3 nM.

For “ac-C(Acm)(thioE10N17)3: one ac-C(Acm)Ttds-CCE10N17 ligated via two thioether bonds to two acetyl-GGGE10N17 chains (peptide 1 {CH2CO}-C(Acm)[Ttds]CCIEEKIEEIEELLQLTVWGIKQLQARIL; peptide 2 Ac-GGGIEEKIEEIEELLQLTVWGIKQLQARIL; thioether I:N-I:3, I:N-I:4; numbers in words are those of the source; also: chain 2 present twice, each copy ligated via thioether to one of the two Cys of chain 1)”, the “anti-viral activity against HIV-1 HXB2, in words” value [1] was “much lower potencies” and the “melting temperature / midpoint of thermal denaturation” value (“melting temperature / midpoint” below) [6] was “above 90 °C”.

In the case of “IEKKIEEIEKKIEEIEKKIEEIEKLLQLTVWGIKQLQARIL [EZN17]”, the “D5 IgG binding in bio-5-Helix/D5 IgG interaction assay, in words” value [2] is reported as “interact with D5 IgG”, the “helical content by circular dichroism” value [7] is reported as “fully helical” and the “D5 IgG binding in bio-IZN17/D5 IgG interaction assay, in words” value [8] is reported as “strongly binds to D5 IgG; also recorded: interact with D5 IgG; also recorded: affinity comparable to IZN17”.

In the case of “I: Ac-CCGGIKKKIEAIEKLLQLTVWGIKQLQARIL-NH2 / II: Ac-CCGGIKKKIEAIEKLLQLTVWGIKQLQARIL-NH2 / III: Ac-CCGGIKKKIEAIEKLLQLTVWGIKQLQARIL-NH2 (disulfide I:1-III:2, I:2-II:2, II:1-III:1; C-terminus assumed) [(CCI10N17)3]”, the “D5 IgG binding in bio-5-Helix/D5 IgG interaction assay, in words” value [2] is reported as “competes for binding of D5 IgG to Biotin-5-Helix”, the “fold less potent (IC50) than (CCIZN17)3” value [1] is reported as “approximately 150 fold” and the IC50 ([1]; HXB2) is reported as 24 nM. The “fold reduction in anti-viral activity relative to IZN17” value ([1]; HXB2) was “approximately 10 fold”, the “anti-viral activity against HIV-1 HXB2, in words” value [1] was “less potent in anti-viral activity assays” and the “helical content by circular dichroism” value [7] was 85%. For the same molecule, the “melting point (thermal denaturation)” value [7] was “about 60 °C”, the “melting point (thermal denaturation)” value ([7]; listed as (CC110N17)3) was 60 °C and the “D5 IgG binding in bio-IZN17/D5 IgG interaction assay, in words” value [8] was “somewhat less effective than 112N7; also recorded: clearly inhibits”.

For “IKKEIEAIKKEQEAIKKKIEAIEKLLQaTVWGIKQLQARIL (Ac-IKKEIEAIKKEQEAIKKKIEAIEKLLQATVWGIKQLQARIL-NH2) [IZN17A4]”, the “competition of D5-IgG binding to biotinylated IQN17, in words” value (“competition of D5-IgG binding” for short) [9] was “completely abolish binding of D5” and the “Tm (2M GdnHCl), midpoint of thermal denaturation” value (from here on “Tm (2M GdnHCl), midpoint”) [6] was 58.2 °C.

For “IEKKIEAIEKKIEAIEKKIEAIEKLLQLTVWGIKQLQARIL [SZN17]”, the IC50 ([1]; read-out: IC50 in single-cell infectivity assay, against HIV BXB2 (so in the source), unit inferred) was 1.5 nM and the “melting temperature / midpoint” value [6] was over 90 °C.

With “IKKEIEAIKKEQEAIKKKIEAIEKLLQLTVWGIaQLQARIL (Ac-IKKEIEAIKKEQEAIKKKIEAIEKLLQLTVWGIAQLQARIL-NH2) [IZN17A10]” the “competition of D5-IgG binding” value [9] was “completely abolish binding of D5” and the “Tm (2M GdnHCl), midpoint” value [6] was 68.1 °C.

With “IKKEIEAIKKEQEAIKKKIEAIEKLLQLTaWGIKQLQARIL (Ac-IKKEIEAIKKEQEAIKKKIEAIEKLLQLTAWGIKQLQARIL-NH2) [IZN17A6]” the “Tm (2M GdnHCl), midpoint” value [6] was 56.4 °C.

With “IKKEIEAIKKEQEAIKKKIEAIEKaLQLTVWGIKQLQARIL (Ac-IKKEIEAIKKEQEAIKKKIEAIEKALQLTVWGIKQLQARIL-NH2) [IZN17A1]” the “Tm (2M GdnHCl), midpoint” value [6] was 51.7 °C.

With “CCGGIKKEIEAIKKEQEAIKKKIEAIEKLLQLTVWGIKALAAAIA [CCIZN17Ala4]” the “anti-viral activity against HIV-1 HXB2, in words” value [1] was “retain anti-viral activity”.

With “(CCS17N17)3: covalent disulfide trimer of CCS17N17 (CCGGIEKKIEAIEKKIEAIEKLLQLTVWGIKQLQARIL; also: disulfide-linked homotrimer)” the “melting temperature / midpoint” value [6] was “above 90 °C”.

With “IKKKIEAIEKLLQLTVWGIKQLQARILGGCC [I10N17CC]” the “anti-viral activity against HIV-1 HXB2, in words” value [1] was “less potent anti-virals”.

In the case of “IKKEIEAIKKEQEAIKKKIEAIEKLLQLTVaGIKQLQARIL (Ac-IKKEIEAIKKEQEAIKKKIEAIEKLLQLTVAGIKQLQARIL-NH2) [IZN17A7]”, the “competition of D5-IgG binding” value [9] is reported as “completely abolish binding of D5” and the “Tm (2M GdnHCl), midpoint” value [6] is reported as 61.4 °C.

For “IKKEIEAIKKEQEAIKKKIEAIEKLLQLTVWGIKaLQARIL (Ac-IKKEIEAIKKEQEAIKKKIEAIEKLLQLTVWGIKALQARIL-NH2; not fully specified (residue 35); printed as IKKEIEAIKKEQEAIKKKIEAIEKLLQLTVWGIKaLQARIL) [IZN17A11]”, the “Tm (2M GdnHCl), midpoint” value [6] was 66.0 °C.

With “Ac-IKKEIEAIKKEQEAIKKKIEAIEKLLQLTVWGIKQLQARIL-NH2 [IZN17, reference compound]” the IC50 ([1]; HXB2) was 1.7 nM, the “helical content by circular dichroism” value [7, 10] was “fully helical” and the IC50 ([3]; BaL) was 3.2 nM. The “Tm (2M GdnHCl), midpoint” value [6] was 61.5 °C, the “melting temperature / midpoint” value [6] was 61.5 °C and the “anti-viral activity against HIV isolate 89.6, in words” value [4] was “completely resistant towards IZN17”. For the same molecule, the “Anti-viral activity, IC50” value ([4]; HIV strain 89.6) was “No”.

For “IKKEIEAIKKEQEAIKKKIEAIEKLLQLTVWGIKQLQARIa (Ac-IKKEIEAIKKEQEAIKKKIEAIEKLLQLTVWGIKQLQARIA-NH2; not fully specified (residue 41)) [IZN17A17]”, the “Tm (2M GdnHCl), midpoint” value [6] was 60.6 °C.

Molecule “Ac-LLQLTVWGIKQLQARILAIKKEIEAIKKEQEAIKKKIEAI-NH2 (C-terminus assumed) [N17IZ]” has an IC50 ([1]; HXB2) of 800 nM.

With “CCGGIEKKIEEIEKKIEEIEKKIEEIEKLLQLTVWGIKQLQARIL [CCEZN17]” the “D5 IgG binding in bio-5-Helix/D5 IgG interaction assay, in words” value [2] was “interact with D5 IgG”, the “anti-viral activity against HIV-1 HXB2, in words” value [1] was “lack of anti-viral activity” and the “D5 IgG binding in bio-IZN17/D5 IgG interaction assay, in words” value [8] was “interact with D5 IgG”.

“Biotin-GGIKKEIEAIKKEQEAIKKKIEAIEKEIEAQQHLLQLTVWGIKQLQARIL-NH2 [Biotin-IZN23]” showed an IC50 ([1]; HXB2) of 2.17 nM.

In the case of “IKKEIEAIKKEQEAIKKKIEAIEKLLQLTVWGIKQLQAaIL (Ac-IKKEIEAIKKEQEAIKKKIEAIEKLLQLTVWGIKQLQAAIL-NH2; not fully specified (residue 38); printed as IKKEIEAIKKEQEAIKKKIEAIEKLLQLTVWGIKQLQAaIL) [IZN17A15]”, the “Tm (2M GdnHCl), midpoint” value [6] is reported as 77.2 °C.

For “IKKEIEAIKKEQEAIKKKIEAIEKLLaLTVWGIKQLQARIL (Ac-IKKEIEAIKKEQEAIKKKIEAIEKLLALTVWGIKQLQARIL-NH2) [IZN17A3]”, the “Tm (2M GdnHCl), midpoint” value [6] was 64.7 °C.

For “IKKEIEAIKKEQEATKKKIEAIEKLLQLTVWGIKQLaARIL [IZN17A13]”, the “Tm (2M GdnHCl), midpoint” value [6] was 71.5 °C.

For “CCGGIKKKIEAIEKLLQLTVWGIKQLQARIL [CCI10N17, shortened IZ scaffold]”, the “anti-viral activity against HIV-1 HXB2, in words” value [1] was “less potent anti-virals” and the “helical content by circular dichroism” value [7, 10] was 61%.

B1: ac-C(Acm)(thioIZN17)3: one ac-C(Acm)Ttds-CCIZN17 chain ligated via two thioether bonds to two acetyl-GGGIZN17 chains (peptide)
peptide 1: CCCGGIKKEIEAIKKEQEAIKKKIEAIEKLLQLTVWGIKQLQARIL
peptide 2: GGGIKKEIEAIKKEQEAIKKKIEAIEKLLQLTVWGIKQLQARIL
In the case of B1, the “anti-viral activity against HIV-1 HXB2, in words” value [1] is reported as “comparable antiviral activity to (CCIZN17)3”.
